Marks after values point to notes of the source that are not given here.
Assays:
Type in all cases: in vivo
Kunming mice [1] = assay: Influence on hypnosis effect with pentobarbital sodium doses below the threshold (25 mg/kg i.p.); details: pentobarbital sodium 25 mg/kg i.p. 60 min later, sleep observed in 30 min, n = 10
Outline: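 Percentage of mice sleeping within 30 min after subthreshold pentobarbital sodium (25 mg/kg i.p.), defined by loss of righting reflex over 1 min, analysed by χ2. Compound in 0.5% CMC-Na given intragastrically at 25/50/100 mg/kg 60 min before; groups of 10 Kunming mice, both sexes.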

Kunming mice [2] = assay: Influence on autonomic activity of normal mice (ZIL-2 mice autonomic activity meter, counts within 10 min); details: intragastric, x ± s; for Times of activities in 1 h after drug administration/10 min: 1 h after administration; for Times of activities in 2 h after drug administration/10 min: 2 h after administration; for Times of activities in 24 h after drug administration/10 min: 24 h after administration
Outline: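 Activity counts during a 10-min window were taken at 1, 2 and 24 h after dosing in groups of 10 mixed-sex Kunming mice. Compounds were given in 0.5% CMC-Na at 25, 50 or 100 mg/kg. Statistics used Levene's homogeneity test, ANOVA and Dunnett's multiple comparisons.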

Kunming mice [3] = assay: Influence on hypnosis effect with pentobarbital sodium doses at the threshold (50 mg/kg i.p.); details: pentobarbital sodium 50 mg/kg i.p. 60 min later, x ± s, n = 10
Outline: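 Pentobarbital sodium (0.3%, 50 mg/kg i.p.) injected 60 min after a single intragastric dose (25, 50, 100 mg/kg, 0.5% CMC-Na vehicle) in Kunming mice, 10 per group, sexes balanced. Onset and length of sleep (righting reflex lost over 1 min) analysed by ANOVA; sleeping incidence by χ2 test.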

[4] = test drug 25 mg/kg intragastric single dose
[5] = test drug 50 mg/kg intragastric single dose
[6] = test drug 100 mg/kg intragastric single dose
[7] = 25 mg/kg intragastric single dose
[8] = 50 mg/kg intragastric single dose
[9] = 100 mg/kg intragastric single dose

SMILES	Number of sleeping animals (Kunming mice [1]; [4])	rate of sleeping (%) (Kunming mice [1]; [4])	Number of sleeping animals (Kunming mice [1]; [5])	rate of sleeping (%) (Kunming mice [1]; [5])	Number of sleeping animals (Kunming mice [1]; [6])	rate of sleeping (%) (Kunming mice [1]; [6])	duration of sleep (Kunming mice [3]; [7]) [min]	time to sleep (Kunming mice [3]; [7]) [min]	duration of sleep (Kunming mice [3]; [8]) [min]	time to sleep (Kunming mice [3]; [8]) [min]	duration of sleep (Kunming mice [3]; [9]) [min]	time to sleep (Kunming mice [3]; [9]) [min]	Times of activities in 1 h after drug administration/10 min (Kunming mice [2]; 25 mg/kg, n = 10)	Times of activities in 2 h after drug administration/10 min (Kunming mice [2]; 25 mg/kg, n = 10)	Times of activities in 24 h after drug administration/10 min (Kunming mice [2]; 25 mg/kg, n = 10)	Times of activities in 1 h after drug administration/10 min (Kunming mice [2]; 50 mg/kg, n = 10)	Times of activities in 2 h after drug administration/10 min (Kunming mice [2]; 50 mg/kg, n = 10)	Times of activities in 24 h after drug administration/10 min (Kunming mice [2]; 50 mg/kg, n = 10)	Times of activities in 1 h after drug administration/10 min (Kunming mice [2]; 100 mg/kg, n = 10)	Times of activities in 2 h after drug administration/10 min (Kunming mice [2]; 100 mg/kg, n = 10)	other results
COc1ccc(C2CC(=O)c3c(O)c(OC)c(OC)c(OC)c3O2)cc1OC (stereo not drawn) [Example 64, 5-hydroxyl-6,7,8,3′,4′-penta methoxyl-flavanone]	4	40* %	7	70** %	8	80*** %	24.78 ± 24.51	5.87 ± 2.32	48.23 ± 24.48	4.32 ± 1.29	53.43 ± 21.81	3.87 ± 2.43									Times of activities in 1 h after drug administration/10 min (Kunming mice [2]; 25 mg/kg, n = 10, 25 mg/kg): 323.9 ± 45.4 /10 min; Times of activities in 2 h after drug administration/10 min (Kunming mice [2]; 25 mg/kg, n = 10, 25 mg/kg): 310.9 ± 55.9 /10 min; Times of activities in 24 h after drug administration/10 min (Kunming mice [2]; 25 mg/kg, n = 10, 25 mg/kg): 331.3 ± 94.5 /10 min; Times of activities in 1 h after drug administration/10 min (Kunming mice [2]; 50 mg/kg, n = 10, 50 mg/kg): 283.8 ± 60.4 /10 min; Times of activities in 2 h after drug administration/10 min (Kunming mice [2]; 50 mg/kg, n = 10, 50 mg/kg): 269.7 ± 44.6 /10 min; Times of activities in 24 h after drug administration/10 min (Kunming mice [2]; 50 mg/kg, n = 10, 50 mg/kg): 313.6 ± 93.1 /10 min; Times of activities in 1 h after drug administration/10 min (Kunming mice [2]; 100 mg/kg, n = 10, 100 mg/kg): 239.4 ± 35.6 /10 min; Times of activities in 2 h after drug administration/10 min (Kunming mice [2]; 100 mg/kg, n = 10, 100 mg/kg): 248.2 ± 44.7 /10 min; Times of activities in 24 h after drug administration/10 min (Kunming mice [2]; 100 mg/kg, n = 10, 100 mg/kg): 300.1 ± 81.3 /10 min
C=Cc1c(C#N)cc(-c2cc(=O)c3c(C=CC)cc(Cc4ccccc4)cc3o2)cc1[N+](=O)[O-] [Example 20]	4	40* %	6	60** %	6	60** %	38.67 ± 21.87	4.33 ± 1.58	66.34 ± 22.15	3.36 ± 1.20	68.09 ± 29.56	3.18 ± 1.10	320.3 ± 49.7 /10 min	293.6 ± 45.1 /10 min	317.4 ± 79.6 /10 min	283.7 ± 51.3 /10 min	278.6 ± 47.5 /10 min	305.2 ± 75.4 /10 min	267.2 ± 55.3 /10 min	250.3 ± 47.1 /10 min	Times of activities in 24 h after drug administration/10 min (Kunming mice [2]; 100 mg/kg, n = 10): 305.7 ± 79.7 /10 min
COc1ccc(C2CC(=O)c3c(OC)cc(OC)c(OC)c3O2)cc1OC (stereo not drawn) [Example 44, 5,7,8,3′,4′-penta methoxyl-flavanone]	6	60** %	7	70** %	9	90*** %	58.25 ± 15.16	4.43 ± 1.55	76.74 ± 25.45	3.46 ± 1.23	89.39 ± 23.44	3.05 ± 1.57	220.8 ± 54.6 /10 min	228.7 ± 43.3 /10 min	311.6 ± 60.1 /10 min	143.4 ± 41.3 /10 min	133.5 ± 38.3 /10 min	315.1 ± 85.5 /10 min	103.4 ± 43.5 /10 min	101.7 ± 45.1 /10 min	Times of activities in 24 h after drug administration/10 min (Kunming mice [2]; 100 mg/kg, n = 10): 303.8 ± 81.2 /10 min
C=Cc1cc2c(=O)cc(-c3ccc(CC)c(N)c3)oc2c(C2CCSC2)c1C(N)=O (stereo not drawn) [Example 30]	5	50** %	6	60** %	8	80*** %	38.82 ± 15.41	4.37 ± 1.58	43.66 ± 21.43	3.73 ± 1.22	58.74 ± 19.57	3.25 ± 1.31	289.2 ± 45.7 /10 min	264.1 ± 42.2 /10 min	302.2 ± 87.3 /10 min	235.8 ± 42.1 /10 min	244.5 ± 48.2 /10 min	294.5 ± 70.6 /10 min	134.6 ± 35.7 /10 min	173.5 ± 39.2 /10 min	Times of activities in 24 h after drug administration/10 min (Kunming mice [2]; 100 mg/kg, n = 10): 288.8 ± 92.1 /10 min
COc1cc(C2Oc3c(OC)c(OC)c(OC)c(O)c3C(=O)C2OC)c(OC)c(OC)c1OC (stereo not drawn) [Example 68, 5-hydroxyl-3,6,7,8,3′,4′,5′,6′-octa methoxyl-flavanone]	3	30%	4	40* %	6	60** %	20.69 ± 25.22	5.36 ± 2.23	29.78 ± 28.77	5.09 ± 2.44	64.55 ± 47.91	3.31 ± 1.14	287.3 ± 47.9 /10 min	267.7 ± 40.4 /10 min	322.9 ± 76.0 /10 min	248.2 ± 57.4 /10 min	243.2 ± 54.6 /10 min	319.6 ± 75.9 /10 min	128.2 ± 30.9 /10 min	241.7 ± 40.9 /10 min	Times of activities in 24 h after drug administration/10 min (Kunming mice [2]; 100 mg/kg, n = 10): 298.1 ± 80.2 /10 min
CC=Cc1cc(I)cc2c1OC(c1cccc(C(=O)O)c1)CC2=O (stereo not drawn) [Example 60]	5	50** %	6	60** %	9	90*** %	46.64 ± 22.53	4.13 ± 1.59	58.37 ± 18.85	3.62 ± 1.74	73.03 ± 19.21	2.32 ± 1.17	243.8 ± 73.8 /10 min	238.9 ± 78.3 /10 min	340.4 ± 76.8 /10 min	143.3 ± 64.7 /10 min	131.8 ± 62.3 /10 min	327.6 ± 75.3 /10 min	116.9 ± 33.8 /10 min	109.9 ± 39.2 /10 min	Times of activities in 24 h after drug administration/10 min (Kunming mice [2]; 100 mg/kg, n = 10): 293.4 ± 84.9 /10 min

Reference: patent US9669003B2, “Use of flavone and flavanone derivatives in preparation of sedative and hypnotic drugs” (priority 2012, dated 2017)
